Test results from paper PMC3625062 (MedChemComm, 2012).
Values belong to the compound of their own block, whether it stands above or below them.

Key:
[1] = target: PDE10A (Homo sapiens, UniProt Q9Y233); experiment: PDE10A inhibition, [3H]cAMP hydrolysis scintillation proximity assay; type: biochemical
[2] = tested on: R6/2 mice; settings: behavioural symptoms such as rotarod performance improved; cited from earlier work

PDE10A, sequence (Q9Y233 whole entry): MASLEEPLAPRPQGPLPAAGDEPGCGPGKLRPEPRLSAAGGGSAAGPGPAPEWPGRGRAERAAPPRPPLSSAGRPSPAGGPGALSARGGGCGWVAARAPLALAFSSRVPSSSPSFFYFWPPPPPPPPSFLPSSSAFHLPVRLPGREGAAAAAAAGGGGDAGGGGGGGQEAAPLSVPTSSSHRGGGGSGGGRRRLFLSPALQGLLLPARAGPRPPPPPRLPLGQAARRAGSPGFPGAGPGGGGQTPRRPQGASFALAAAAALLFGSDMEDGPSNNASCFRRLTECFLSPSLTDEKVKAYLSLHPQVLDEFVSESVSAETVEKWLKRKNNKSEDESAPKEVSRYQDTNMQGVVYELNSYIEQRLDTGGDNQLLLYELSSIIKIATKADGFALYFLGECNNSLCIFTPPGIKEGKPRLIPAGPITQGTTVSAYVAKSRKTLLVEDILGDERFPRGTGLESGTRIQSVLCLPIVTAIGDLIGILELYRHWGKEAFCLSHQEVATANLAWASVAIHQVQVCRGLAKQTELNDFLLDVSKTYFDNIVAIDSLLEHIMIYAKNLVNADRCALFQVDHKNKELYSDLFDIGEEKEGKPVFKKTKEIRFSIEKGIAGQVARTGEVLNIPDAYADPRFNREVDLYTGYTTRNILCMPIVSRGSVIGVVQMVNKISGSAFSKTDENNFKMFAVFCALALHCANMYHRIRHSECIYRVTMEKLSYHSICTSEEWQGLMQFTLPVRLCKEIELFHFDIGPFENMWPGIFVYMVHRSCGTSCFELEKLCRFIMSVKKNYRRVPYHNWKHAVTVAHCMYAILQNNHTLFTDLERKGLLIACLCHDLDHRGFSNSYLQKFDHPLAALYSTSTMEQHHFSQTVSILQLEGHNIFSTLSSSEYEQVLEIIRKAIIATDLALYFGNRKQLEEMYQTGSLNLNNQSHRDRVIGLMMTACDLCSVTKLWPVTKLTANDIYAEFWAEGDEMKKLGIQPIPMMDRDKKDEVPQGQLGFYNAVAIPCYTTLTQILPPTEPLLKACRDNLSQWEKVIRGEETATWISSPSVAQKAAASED

- fold higher PDE10A IC50 value than 11e ([1]; IC50 of 8-methoxy 11f versus 7-methoxy 11e): 2 fold
Compound: COc1cccc2ccc(COc3ccc(-c4c(-c5ccncc5)cnn4C)cc3)nc12 [Compound 11f]

- fold less potent for PDE10A than 10b ([1]; IC50 versus the corresponding O-atom bridged analogue 10b): 600 fold
Compound: COc1cc(CSc2ccc(-c3nn(C)cc3-c3ccncc3)cc2)nc2ccccc12 [Compound 10g]

Compound: FC(F)(F)Cn1cc(-c2ccncc2)c(-c2ccc(OCc3ccc4ccccc4n3)cc2)n1 [TP-10, 2-[4-[pyridin-4-yl-1-(2,2,2-trifluoroethyl)-1H-pyrazol-3-yl]-phenoxymethyl]-quinoline]
- neuropathology and symptoms in R6/2 mice [2]: ameliorated
